One assay has as its target IMP-1 (Serratia marcescens, UniProt P52699). The assay is described as follows: Enzyme activity: determination of IC50, fluorescence assay with CCF2-FA substrate. As to conditions: IMP-1 enzyme 2 pM, CCF2-FA 1.25 μM, 2 hours at 25° C.; read-out: IMP1 IC50. Format: biochemical. A digest of the protocol: (§1)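 Enzyme at 1 pM (NDM-1), 2 pM (IMP-1) or 30 pM (VIM-1) was incubated with inhibitor (20 μM to 0.00063 μM) and 1.25 μM CCF2-FA in 100 mM KH2PO4 pH 7, 0.005% Tween-20, 10 μM ZnSO4 for 2 hours at 25° C. Fluorescence was read at ex 405/em 460 nm; IC50 from 4-parameter fit.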

A further assay concerns the target NDM-1 (Klebsiella pneumoniae, UniProt C7C422). The description is as above. Format: biochemical. As to conditions: NDM-1 enzyme 1 pM, CCF2-FA 1.25 μM, 2 hours at 25° C.; read-out: NDM1 IC50. The method in brief: as §1
For the next assay, the target named is VIM-1 (Pseudomonas aeruginosa, UniProt A0A0F7KYQ8). The description is as above. It is filed as biochemical. The note with it: VIM-1 enzyme 30 pM, CCF2-FA 1.25 μM, 2 hours at 25° C.; read-out: VIM1 IC50. A digest of the protocol: as §1
In assay [1] the test system is Escherichia coli expressing NDM-1 (CLB30016). Briefly: Antibiotic potentiation activity: synergistic concentration (MITC95) with imipenem, growth by OD600. It is filed as cell-based. The note with it: E. coli CLB30016 (NDM-1), 95% inhibition of growth. A digest of the protocol: (§2)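 Colonies from overnight agar plates (35 °C) were suspended in saline and diluted 1:100 into 1.1× CAMHB. Inhibitor (final 200 μM to 0.195 μM) was combined with imipenem at 1 or 4 μg/ml, incubated 22–24 h at 35 °C, and absorbance read; MITC95 is the lowest inhibitor concentration giving 95% growth inhibition.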

The subject of assay [2] is Klebsiella pneumoniae expressing VIM-1 (IHMA599644). The assay is described as above. It is filed as cell-based. The note with it: K. pneumoniae IHMA599644 (VIM-1), 95% inhibition of growth. A digest of the protocol: as §2
Assay [3] relates to Serratia marcescens expressing IMP-1 (CL5741). The assay is described as above. Format: cell-based. As to conditions: S. marcescens CL5741 (IMP-1), 95% inhibition of growth. A digest of the protocol: as §2

Sequence of IMP-1 (P52699 19-246, looked up, species assumed): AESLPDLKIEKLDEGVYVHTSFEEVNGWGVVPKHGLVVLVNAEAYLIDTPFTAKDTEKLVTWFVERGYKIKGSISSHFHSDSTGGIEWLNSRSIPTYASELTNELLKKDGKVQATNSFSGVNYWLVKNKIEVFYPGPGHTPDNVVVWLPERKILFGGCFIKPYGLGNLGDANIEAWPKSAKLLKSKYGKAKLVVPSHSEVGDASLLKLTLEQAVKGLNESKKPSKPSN
Sequence of NDM-1 (C7C422 29-270, looked up, species assumed): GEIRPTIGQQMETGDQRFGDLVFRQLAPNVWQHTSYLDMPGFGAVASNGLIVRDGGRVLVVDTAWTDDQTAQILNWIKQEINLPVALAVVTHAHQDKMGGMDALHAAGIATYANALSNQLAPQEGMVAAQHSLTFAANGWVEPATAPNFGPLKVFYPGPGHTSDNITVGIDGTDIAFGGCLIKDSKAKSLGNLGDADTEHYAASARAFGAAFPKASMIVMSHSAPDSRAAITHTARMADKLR

By IC50 is commonly meant the concentration at which inhibition is half-maximal. In the case of `CCC[C@H](C(=O)O)[C@H](Cc1ccccc1F)c1nnn[nH]1` [Example 259, (S)-2-((S)-2-(2-fluorophenyl)-1-(1H-tetrazol-5-yl)ethyl)pentanoic acid], the IC50 was 930 nM at IMP-1, 37 nM on NDM-1 and 4.2 nM on VIM-1. Also, the “NDM1 EC30016 MITC95” value in assay [1] came to 9.4 µM. The “VIM1 KP599644 MITC95” value in assay [2] is 12.5 µM. In assay [3], the “IMP1 SM5741 MITC95” value worked out at 12.5 µM.

On to `CCC[C@H](C(=O)O)[C@H](Cc1cccc(F)c1)c1nnn[nH]1` [Example 260, (2S)-2-[(1S)-2-(3-fluorophenyl)-1-(1H-tetrazol-5-yl)ethyl]pentanoic acid], for which the IC50 at IMP-1 turned out to be 870 nM; on NDM-1, 75 nM; on VIM-1 it was 3.7 nM. For the same compound, the “NDM1 EC30016 MITC95” value in assay [1] turned out to be 6.2 µM. Further, in assay [2], the “VIM1 KP599644 MITC95” value worked out at 18.8 µM. Besides, the “IMP1 SM5741 MITC95” value in assay [3] was determined as 12.5 µM.

With `CCC[C@H](C(=O)O)[C@H](Cc1ccc(F)cc1)c1nnn[nH]1` [Example 261, (2S)-2-[(1S)-2-(4-fluorophenyl)-1-(1H-tetrazol-5-yl)ethyl]pentanoic acid], the figures for the 50% inhibitory concentration (IC50) on IMP-1, at NDM-1 and at VIM-1 were 910 nM, 110 nM and 3.8 nM, respectively. In assay [1], the “NDM1 EC30016 MITC95” value was 9.4 µM. Moreover, the “VIM1 KP599644 MITC95” value in assay [2] worked out at 12.5 µM. Moreover, the “IMP1 SM5741 MITC95” value in assay [3] came to 12.5 µM.

Take `CCC[C@H](C(=O)O)[C@H](Cc1ccc(F)cc1F)c1nnn[nH]1` [Example 262, (2S)-2-[(1S)-2-(2,4-difluorophenyl)-1-(1H-tetrazol-5-yl)ethyl]pentanoic acid]: the figures for the IC50 at IMP-1, on NDM-1 and on VIM-1 were 1300 nM, 70 nM and 3.1 nM, respectively. In assay [1], the “NDM1 EC30016 MITC95” value was 6.2 µM. In addition, the “VIM1 KP599644 MITC95” value in assay [2] worked out at 12.5 µM. In addition, in assay [3], the “IMP1 SM5741 MITC95” value worked out at 18.8 µM.

In the case of `CCC[C@H](C(=O)O)[C@H](Cc1ccc(Cl)cc1)c1nnn[nH]1` [Example 263, (2S)-2-[(1S)-2-(4-chlorophenyl)-1-(1H-tetrazol-5-yl)ethyl]pentanoic acid], the IC50 at IMP-1 amounted to 430 nM; at NDM-1 it was 57 nM; on VIM-1 it was 2.4 nM. For the same compound, the “NDM1 EC30016 MITC95” value in assay [1] is 9.4 µM. Further, the “VIM1 KP599644 MITC95” value in assay [2] was 9.4 µM. For the same compound, in assay [3], the “IMP1 SM5741 MITC95” value came to 12.5 µM.

Turning to `CCC[C@H](C(=O)O)[C@H](Cc1cccnc1)c1nnn[nH]1` [Example 264, (S)-2-((S)-2-(pyridin-3-yl)-1-(1H-tetrazol-5-yl)ethyl)pentanoic acid], the results for the IC50 on IMP-1, at NDM-1 and at VIM-1 were 7100 nM, 370 nM and 16 nM, respectively. In addition, the “NDM1 EC30016 MITC95” value in assay [1] was 2.3 µM. Moreover, the “VIM1 KP599644 MITC95” value in assay [2] was 18.8 µM. Moreover, the “IMP1 SM5741 MITC95” value in assay [3] is 100 µM.

`CCC[C@H](C(=O)O)[C@H](C[C@@H](C)c1ccccc1)c1nnn[nH]1` [Example 265, (2S,3S,5R)-5-phenyl-2-propyl-3-(1H-tetrazol-5-yl)hexanoic acid]: the IC50 was 1800 nM on IMP-1, 130 nM at NDM-1 and 24 nM on VIM-1. For the same compound, the “NDM1 EC30016 MITC95” value in assay [1] is 18.8 µM. Besides, in assay [2], the “VIM1 KP599644 MITC95” value amounted to 75 µM. Moreover, in assay [3], the “IMP1 SM5741 MITC95” value came out at 50 µM.

`CCC[C@H](C(=O)O)[C@H](CCc1ccccc1)c1nnn[nH]1` [Example 266, (2S,3S)-5-phenyl-2-propyl-3-(1H-tetrazol-5-yl)pentanoic acid]: the results for the IC50 on IMP-1, at NDM-1 and on VIM-1 were 1000 nM, 190 nM and 20 nM, respectively. In addition, the “NDM1 EC30016 MITC95” value in assay [1] was determined as 12.5 µM. The “VIM1 KP599644 MITC95” value in assay [2] worked out at 25 µM. Moreover, the “IMP1 SM5741 MITC95” value in assay [3] came out at 38 µM.

On to `CCC[C@H](C(=O)O)[C@H](Cc1cc(C(F)(F)F)cc(C(F)(F)F)c1)c1nnn[nH]1` [Example 269, (2S)-2-[(1S)-2-[3,5-bis(trifluoromethyl)phenyl]-1-(1H-tetrazol-5-yl)ethyl]pentanoic acid], for which the values for the IC50 on IMP-1, at NDM-1 and on VIM-1 were 1500 nM, 36 nM and 0.76 nM, respectively. Besides, the “NDM1 EC30016 MITC95” value in assay [1] came to 18.8 µM. Moreover, the “VIM1 KP599644 MITC95” value in assay [2] was 38 µM. In addition, in assay [3], the “IMP1 SM5741 MITC95” value is 38 µM.

In the case of `CCC[C@H](C(=O)O)[C@H](Cc1ccc2nsnc2c1)c1nnn[nH]1` [Example 271, (2S)-2-[(1S)-2-(2,1,3-benzothiadiazol-5-yl)-1-(1H-tetrazol-5-yl)ethyl]pentanoic acid], the figures for the IC50 at IMP-1, at NDM-1 and on VIM-1 were 650 nM, 84 nM and 1.1 nM, respectively. Moreover, the “NDM1 EC30016 MITC95” value in assay [1] amounted to 6.2 µM. The “VIM1 KP599644 MITC95” value in assay [2] came to 12.5 µM. In assay [3], the “IMP1 SM5741 MITC95” value was determined as 50 µM.

With `CCC[C@H](C(=O)O)[C@H](Cc1cccc2nsnc12)c1nnn[nH]1` [Example 272, (2S)-2-[(1S)-2-(2,1,3-benzothiadiazol-4-yl)-1-(1H-tetrazol-5-yl)ethyl]pentanoic acid], the IC50 at IMP-1 stood at 600 nM; at NDM-1 it was 12 nM; at VIM-1, 0.35 nM. Moreover, in assay [1], the “NDM1 EC30016 MITC95” value stood at 4.7 µM. Further, the “VIM1 KP599644 MITC95” value in assay [2] was 9.4 µM. For the same compound, the “IMP1 SM5741 MITC95” value in assay [3] turned out to be 38 µM.

With `CCC[C@H](C(=O)O)[C@H](Cc1ccc2nonc2c1)c1nnn[nH]1` [Example 273, (2S)-2-[(1S)-2-(2,1,3-benzoxadiazol-5-yl)-1-(1H-tetrazol-5-yl)ethyl]pentanoic acid], the IC50 turned out to be 2200 nM on IMP-1, 260 nM on NDM-1 and 1.9 nM on VIM-1. Also, the “NDM1 EC30016 MITC95” value in assay [1] amounted to 12.5 µM. Also, the “VIM1 KP599644 MITC95” value in assay [2] stood at 9.4 µM. In assay [3], the “IMP1 SM5741 MITC95” value stood at 150 µM.

For `CCC[C@H](C(=O)O)[C@H](Cc1ccc(C(=O)N2CCNCC2)cc1)c1nnn[nH]1` [Example 275, (2S)-2-[(1S)-2-[4-(piperazin-1-ylcarbonyl)phenyl]-1-(1H-tetrazol-5-yl)ethyl]pentanoic acid], the IC50 on IMP-1 was found to be 520 nM; at NDM-1, 39 nM; at VIM-1, 41 nM. Besides, in assay [1], the “NDM1 EC30016 MITC95” value is 9.4 µM. The “VIM1 KP599644 MITC95” value in assay [2] worked out at 38 µM. For the same compound, the “IMP1 SM5741 MITC95” value in assay [3] was 25 µM.

`CCC[C@H](C(=O)O)[C@H](Cc1ccc(C(=O)NCCN)cc1)c1nnn[nH]1` [Example 276, (2S)-2-[(1S)-2-{4-[(2-aminoethyl)carbamoyl]phenyl}-1-(1H-tetrazol-5-yl)ethyl]pentanoic acid]: the IC50 worked out at 5400 nM on IMP-1, 1100 nM on NDM-1 and 8.4 nM at VIM-1. Besides, the “NDM1 EC30016 MITC95” value in assay [1] came out at 12.5 µM. For the same compound, the “VIM1 KP599644 MITC95” value in assay [2] worked out at 25 µM. In assay [3], the “IMP1 SM5741 MITC95” value worked out at 100 µM.

For the compound `CCC[C@H](C(=O)O)[C@H](Cc1ccc(C(=O)N(C)C)cc1)c1nnn[nH]1` [Example 277, (2S)-2-[(1S)-2-[4-(dimethylcarbamoyl)phenyl]-1-(1H-tetrazol-5-yl)ethyl]pentanoic acid], the half-maximal inhibitory concentration (IC50) came to 130 nM at IMP-1, 10 nM on NDM-1 and 13 nM at VIM-1. Moreover, in assay [1], the “NDM1 EC30016 MITC95” value was determined as 25 µM. Moreover, the “VIM1 KP599644 MITC95” value in assay [2] turned out to be 75 µM. For the same compound, the “IMP1 SM5741 MITC95” value in assay [3] worked out at 12.5 µM.

The values above are taken from patent publication US9839642B2, “Beta-tetrazolyl-propionic acids as metallo-beta-lactamase inhibitors” (priority 2014, dated 2017).
